Patent publication US8735414B2 (priority 2009, dated 2014)

What was measured:
[1] = tested on: bicistronic HCV replicon (replicon RNA, GenBank Accession No. AJ242654); experiment: HCV Replicon Assay; format: cell-based; details: Hepatitis C virus, 72 h, read-out: Replicon IC50

CCc1ccc2c(C#N)c(-c3ccc(S(=O)(=O)NC(CF)CF)cn3)n(C3CCC3)c2c1 [compound 48, 6-(3-cyano-1-cyclobutyl-6-ethyl-1H-indol-2-yl)-N-(1,3-difluoropropan-2-yl)pyridine-3-sulfonamide]
IC50 [1]: < 0.5 µM | melting point: 201 to 202 °C

Cc1ccc2c(c1)c(C(N)=O)c(-c1ccc(S(=O)(=O)N[C@@H](C)C(F)(F)F)cn1)n2-c1cnccn1 [compound 916, 5-methyl-1-(pyrazin-2-yl)-2-(5-{[(2S)-1,1,1-trifluoropropan-2-yl]sulfamoyl}pyridin-2-yl)-1H-indole-3-carboxamide]
IC50 [1]: < 0.5 µM | melting point: 240 to 245 °C

Cc1ccc2c(c1)c(C#N)c(-c1ccc(S(=O)(=O)N[C@@H](C)C(F)(F)F)cn1)n2-c1ccccn1 [compound 503, 6-[3-cyano-5-methyl-1-(pyridin-2-yl)-1H-indol-2-yl]-N-[(2S)-1,1,1-trifluoropropan-2-yl]pyridine-3-sulfonamide]
IC50 [1]: 0.5 to 2 µM | melting point: 165 to 167 °C

C[C@H](NS(=O)(=O)c1ccc(-c2c(C#N)c3ccc(C(F)F)cc3n2C2CCC2)nc1)C1CC1 [compound 335, 6-[3-cyano-1-cyclobutyl-6-(difluoromethyl)-1H-indol-2-yl]-N-[(1S)-1-cyclopropylethyl]pyridine-3-sulfonamide]
IC50 [1]: < 0.5 µM | melting point: 182 to 189 °C

Cc1cc2c(cc1F)c(C(N)=O)c(-c1ccc(S(=O)(=O)N[C@@H](C)C(F)(F)F)cn1)n2-c1ccccn1 [compound 874, 5-fluoro-6-methyl-1-(pyridin-2-yl)-2-(5-{[(2S)-1,1,1-trifluoropropan-2-yl]sulfamoyl}pyridin-2-yl)-1H-indole-3-carboxamide]
IC50 [1]: < 0.5 µM | melting point: 142 to 148 °C

Cc1ccc2c(C#N)c(-c3ccc(S(=O)(=O)NC(CF)CF)cn3)n(CC3CC3)c2c1 [compound 81, 6-[3-cyano-1-(cyclopropylmethyl)-6-methyl-1H-indol-2-yl]-N-(1,3-difluoropropan-2-yl)pyridine-3-sulfonamide]
IC50 [1]: < 0.5 µM | melting point: 175 to 182 °C

COc1ccc(-n2c(-c3ccc(S(=O)(=O)NC(CF)CF)cn3)c(C#N)c3cc(F)ccc32)cc1 [compound 336, 6-[3-cyano-5-fluoro-1-(4-methoxyphenyl)-1H-indol-2-yl]-N-(1,3-difluoropropan-2-yl)pyridine-3-sulfonamide]
IC50 [1]: < 0.5 µM | melting point: 198 to 200 °C

C[C@H](NS(=O)(=O)c1ccc(-c2c(C#N)c3cc(F)ccc3n2C2C=CCCC2)nc1)C(F)(F)F (stereo partly drawn) [compound 413, 6-[3-cyano-1-(cyclohex-2-en-1-yl)-5-fluoro-1H-indol-2-yl]-N-[(2S)-1,1,1-trifluoropropan-2-yl]pyridine-3-sulfonamide]
IC50 [1]: < 0.5 µM | melting point: 186 to 187 °C

N#Cc1c(-c2ncc(S(=O)(=O)NC(CF)CF)cn2)n(C2CCCC2)c2ccc(C(F)F)cc12 [compound 536, 2-[3-cyano-1-cyclopentyl-5-(difluoromethyl)-1H-indol-2-yl]-N-(1,3-difluoropropan-2-yl)pyrimidine-5-sulfonamide]
IC50 [1]: < 0.5 µM | melting point: 176 to 177 °C
